Patent publication US10272102B2, “Hydroxyalkyl starch for the treatment of hematological neoplasms” (FRESENIUS KABI DEUTSCHLAND GMBH, priority 2013, dated 2019)

Key:
[1] = system: human acute myelogeneous leukemia EOL-1 cell line; assay: s.c. EOL-1 xenotransplantation model, tumor growth; assay type: in vivo; details: EOL-1 tumor-bearing male NOD/SCID mice; 75 mg/kg i.p. single dose (day 0)
Description: For calculation of the relative tumor volume (RTV) the tumor volumes at each measurement day were related to the day of first treatment. At each measurement day the median and mean tumor volumes per group and also the treated to control (T/C) values in percent were calculated.

[2] = system: PEER IE6; assay: Prestoblue fluorescence cell viability assay, PEER IE6; assay type: cell-based; details: PEER IE6 (ALL), 72 h incubation
Description: (§1) The objective of this study was to investigate potential effects of hydroxyethyl starch (“HES 130/0.4”) on cell viability of different leukemia cell lines. The 50% inhibition concentration (IC50) was determined in 28 different leukemia cell lines using the commercially available “Prestoblue fluorescence cell viability assay” after incubation with different “HES 130/0.4” concentrations for screening reasons. The concentration range of the tested HES was 100 mg/ml-[…].
(§2) PrestoBlue® reagent is a resazurin-based solution that functions as a cell viability indicator by using the reducing power of living cells to quantitatively measure the proliferation of cells. […] This change can be detected using fluorescence or absorbance measurements (see e.g. Int J Microbiol. 2013; 2013: 420601; published online Apr. 4, 2013 doi: 10.1155/2013/420601 PMCID PMC3638707). […]
(§3) Cells were harvested during the logarithmic growth period and counted using the commercially available cell counting device Countstar. […]
(§4) The test plate was incubated for 72 h in a humidified incubator at 37° C. with 5% CO2, and then measured by means of PrestoBlue assay. […] The plate was then incubated at room temperature for 30 minutes until fluorescence (T0) could be recorded using EnVision Multi Label Reader (Excitation: 540-570 nm/Emission: 580-610 nm). […]

[3] = system: HL-60; assay: Prestoblue fluorescence cell viability assay, HL-60; assay type: cell-based; details: HL-60 (AML), 72 h incubation
Description: as §1, §2, §3, §4

[4] = system: THP-1; assay: Prestoblue fluorescence cell viability assay, THP-1; assay type: cell-based; details: THP-1 (AML), 72 h incubation
Description: as §1, §2, §3, §4

[5] = system: Kasumi-1; assay: Prestoblue fluorescence cell viability assay, Kasumi-1; assay type: cell-based; details: Kasumi-1 (AML), 72 h incubation
Description: as §1, §2, §3, §4

[6] = system: EHEB; assay: Prestoblue fluorescence cell viability assay, EHEB; assay type: cell-based; details: EHEB (CLL), 72 h incubation
Description: as §1, §2, §3, §4

[7] = system: Molt-4; assay: Prestoblue fluorescence cell viability assay, Molt-4; assay type: cell-based; details: Molt-4 (ALL), 72 h incubation
Description: as §1, §2, §3, §4

[8] = system: MOLM-16; assay: Prestoblue fluorescence cell viability assay, MOLM-16; assay type: cell-based; details: MOLM-16 (AML), 72 h incubation
Description: as §1, §2, §3, §4

[9] = system: MEC-1; assay: Prestoblue fluorescence cell viability assay, MEC-1; assay type: cell-based; details: MEC-1 (CLL), 72 h incubation
Description: as §1, §2, §3, §4

[10] = system: MV-4-11; assay: Prestoblue fluorescence cell viability assay, MV-4-11; assay type: cell-based; details: MV-4-11 (AML), 72 h incubation
Description: as §1, §2, §3, §4

[11] = system: MUTZ-5; assay: Prestoblue fluorescence cell viability assay, MUTZ-5; assay type: cell-based; details: MUTZ-5 (ALL), 72 h incubation
Description: as §1, §2, §3, §4

[12] = system: MHH-CALL-2; assay: Prestoblue fluorescence cell viability assay, MHH-CALL-2; assay type: cell-based; details: MHH-CALL-2 (ALL), 72 h incubation
Description: as §1, §2, §3, §4

[13] = system: Reh; assay: Prestoblue fluorescence cell viability assay, Reh; assay type: cell-based; details: 72 h incubation
Description: as §1, §2, §3, §4

[14] = system: K-562; assay: Prestoblue fluorescence cell viability assay, K-562; assay type: cell-based; details: K-562 (CML), 72 h incubation
Description: as §1, §2, §3, §4

[15] = system: JVM-2; assay: Prestoblue fluorescence cell viability assay, JVM-2; assay type: cell-based; details: JVM-2 (CLL), 72 h incubation
Description: as §1, §2, §3, §4

[16] = system: CCRF-SB; assay: Prestoblue fluorescence cell viability assay, CCRF-SB; assay type: cell-based; details: CCRF-SB (ALL), 72 h incubation
Description: as §1, §2, §3, §4

[17] = system: MOLM-13; assay: Prestoblue fluorescence cell viability assay, MOLM-13; assay type: cell-based; details: MOLM-13 (AML), 72 h incubation
Description: as §1, §2, §3, §4

[18] = system: SUP-B15; assay: Prestoblue fluorescence cell viability assay, SUP-B15; assay type: cell-based; details: SUP-B15 (ALL), 72 h incubation
Description: as §1, §2, §3, §4

[19] = system: MEC-2; assay: Prestoblue fluorescence cell viability assay, MEC-2; assay type: cell-based; details: MEC-2 (CLL), 72 h incubation
Description: as §1, §2, §3, §4

[20] = system: TF-1; assay: Prestoblue fluorescence cell viability assay, TF-1; assay type: cell-based; details: TF-1 (AML), 72 h incubation
Description: as §1, §2, §3, §4

[21] = system: JVM-3; assay: Prestoblue fluorescence cell viability assay, JVM-3; assay type: cell-based; details: JVM-3 (CLL), 72 h incubation
Description: as §1, §2, §3, §4

[22] = system: NALM 6; assay: Prestoblue fluorescence cell viability assay, NALM 6; assay type: cell-based; details: NALM 6 (ALL), 72 h incubation
Description: as §1, §2, §3, §4

[23] = system: MEG-01; assay: Prestoblue fluorescence cell viability assay, MEG-01; assay type: cell-based; details: MEG-01 (CML), 72 h incubation
Description: as §1, §2, §3, §4

[24] = system: Jurkat; assay: Prestoblue fluorescence cell viability assay, Jurkat; assay type: cell-based; details: Jurkat (ALL), 72 h incubation
Description: as §1, §2, §3, §4

[25] = system: NB4; assay: Prestoblue fluorescence cell viability assay, NB4; assay type: cell-based; details: NB4 (AML), 72 h incubation
Description: as §1, §2, §3, §4

[26] = system: KU812; assay: Prestoblue fluorescence cell viability assay, KU812; assay type: cell-based; details: KU812 (CML), 72 h incubation
Description: as §1, §2, §3, §4

[27] = system: JVM-13; assay: Prestoblue fluorescence cell viability assay, JVM-13; assay type: cell-based; details: JVM-13 (CLL), 72 h incubation
Description: as §1, §2, §3, §4

[28] = system: ML-2; assay: Prestoblue fluorescence cell viability assay, ML-2; assay type: cell-based; details: ML-2 (AML), 72 h incubation
Description: as §1, §2, §3, §4

[29] = system: RS4;11; assay: Prestoblue fluorescence cell viability assay, RS4;11; assay type: cell-based; details: RS4;11 (ALL), 72 h incubation
Description: as §1, §2, §3, §4

O=P1(N(CCCl)CCCl)NCCCO1 (stereo not drawn) [Cyclophosphamide]
inhibition of tumor growth [1]: significant inhibition

N.N.[Cl][Pt][Cl] [Cisplatin, cisplatin]
IC50 [2]: 3730 µg/mL | Max-inhibition [2]: 100% | IC50 [3]: 450 µg/mL | Max-inhibition [3]: 100% | IC50 [4]: 640 µg/mL | Max-inhibition [4]: 100% | IC50 [5]: 780 µg/mL | Max-inhibition [5]: 100% | IC50 [6]: 490 µg/mL | Max-inhibition [6]: 100% | IC50 [7]: 150 µg/mL | Max-inhibition [7]: 100% | IC50 [8]: 650 µg/mL | Max-inhibition [8]: 100% | IC50 [9]: 1150 µg/mL | Max-inhibition [9]: 100% | IC50 [10]: 160 µg/mL | Max-inhibition [10]: 100% | IC50 [11]: 190 µg/mL | Max-inhibition [11]: 100% | IC50 [12]: 140 µg/mL | Max-inhibition [12]: 100% | Max-inhibition ([13]; Reh (AML)): 100% | IC50 ([13]; Reh (B-ALL)): 170 µg/mL | IC50 [14]: 1290 µg/mL | Max-inhibition [14]: 100% | IC50 [15]: 180 µg/mL | Max-inhibition [15]: 100% | IC50 [16]: 100 µg/mL | Max-inhibition [16]: 100% | IC50 [17]: 340 µg/mL | Max-inhibition [17]: 100% | IC50 [18]: 450 µg/mL | Max-inhibition [18]: 100% | IC50 [19]: 1670 µg/mL | Max-inhibition [19]: 100% | IC50 [20]: 1720 µg/mL | Max-inhibition [20]: 100% | IC50 [21]: 270 µg/mL | Max-inhibition [21]: 100% | IC50 [22]: 240 µg/mL | Max-inhibition [22]: 100% | IC50 [23]: 830 µg/mL | Max-inhibition [23]: 100% | IC50 [24]: 200 µg/mL | Max-inhibition [24]: 100% | IC50 [25]: 140 µg/mL | Max-inhibition [25]: 100% | IC50 [26]: 250 µg/mL | Max-inhibition [26]: 100% | IC50 [27]: 180 µg/mL | Max-inhibition [27]: 100% | IC50 [28]: 350 µg/mL | Max-inhibition [28]: 100% | IC50 [29]: 50 µg/mL | Max-inhibition [29]: 100%
